Tests used:
Pyricularia oryzae = test: microbe, parasite or virus in culture; format: cell-based; details: 168 h, read-out: control compared to the untreated check (radial growth)
Alternaria solani = Alternaria solani (early blight of tomato/potato) in vitro test, radial growth on potato dextrose agar; format: cell-based; details: 168 h, 300 ppm in potato dextrose agar, 25° C., 60% relative humidity, seven days, read-out: control compared to the untreated check (radial growth)
[1] = test system: Septoria lycopersici/Corynespora cassicola (CORYCA); test: Septoria lycopersici/Corynespora cassicola (CORYCA) (leaf spot of tomato) in vitro test, radial growth on potato dextrose agar; format: cell-based; details: 168 h, 300 ppm in potato dextrose agar, 25° C., 70% relative humidity, seven days, read-out: control compared to the untreated check (radial growth)
Fusarium culmorum = Fusarium culmorum (foot rot of cereals) in vitro test, radial growth on potato dextrose agar; format: cell-based; details: 168 h, 300 ppm in potato dextrose agar, 25° C., 60% relative humidity, seven days, read-out: control compared to the untreated check (radial growth)
Method: Compounds were dissolved in 0.3% dimethyl sulfoxide and then added to potato dextrose agar medium just prior to dispensing it into petri dishes. 5 mL medium with the compound in the desired concentration was dispensed into 60 mm sterile petri-plates. After solidification each plate was seeded with a 5 mm size mycelial disc taken from the periphery of an actively growing virulent culture plate. Plates were incubated in growth chambers at 25° C. temperature and 60% relative humidity for seven days and then the radial growth was measured and compared to that of the untreated control.

Rhizoctonia solani = Rhizoctonia solani (rice sheath blight/potato black scurf) in vitro test, radial growth on potato dextrose agar; format: cell-based; details: 168 h, 300 ppm in potato dextrose agar, 25° C., 60% relative humidity, seven days, read-out: control compared to the untreated check (radial growth)
Phakopsora pachyrhizi = Phakopsora pachyrhizi test in soybean, preventive, in vivo on plants; details: in Glycine max, read-out: Efficacy (% control), disease severity compared to the untreated check
Botrytis cinerea = Botrytis cinerea (gray mold) in vitro test, radial growth on potato dextrose agar; format: cell-based; details: 168 h, 300 ppm in potato dextrose agar, 22° C., 90% relative humidity, seven days, read-out: control compared to the untreated check (radial growth)
Colletotrichum capsici = Colletotrichum capsici (anthracnose) in vitro test, radial growth on potato dextrose agar; format: cell-based; details: Colletotrichum truncatum, 168 h; 300 ppm in potato dextrose agar; 25° C., 60% relative humidity, seven days; read-out: control compared to the untreated check (radial growth)

CCN(C)C=Nc1cc(OC)cc(N(C)c2ccc(OC)c(F)c2)c1C [Compound 271, N-ethyl-N′-(3-((3-fluoro-4-methoxyphenyl)(methyl)amino)-5-methoxy-2-methylphenyl)-N-methylformimidamide]
≥ 70%: inhibition of growth at 300 ppm (Pyricularia oryzae) | inhibition of growth at 300 ppm (Alternaria solani) | inhibition of growth at 300 ppm [1] | inhibition of growth at 300 ppm (Fusarium culmorum)

CCN(C)C=Nc1cc(OC)cc(Cc2ccccc2F)c1C [Compound 266, N-ethyl-N′-(3-(2-fluorobenzyl)-5-methoxy-2-methylphenyl)-N-methylformimidamide]
≥ 70%: inhibition of growth at 300 ppm (Rhizoctonia solani) | inhibition of growth at 300 ppm (Pyricularia oryzae) | inhibition of growth at 300 ppm (Alternaria solani) | inhibition of growth at 300 ppm [1] | inhibition of growth at 300 ppm (Fusarium culmorum) | pest or weed control at 500 ppm (Phakopsora pachyrhizi)

CCN(C)C=Nc1cc(F)cc(Cc2ccc(F)c(C)c2)c1C [Compound 203, N-ethyl-N′-(5-fluoro-3-(4-fluoro-3-methylbenzyl)-2-methylphenyl)-N-methylformimidamide]
≥ 70%: inhibition of growth at 300 ppm (Rhizoctonia solani) | inhibition of growth at 300 ppm (Pyricularia oryzae) | inhibition of growth at 300 ppm (Alternaria solani) | inhibition of growth at 300 ppm (Botrytis cinerea) | inhibition of growth at 300 ppm [1] | inhibition of growth at 300 ppm (Colletotrichum capsici) | pest or weed control at 500 ppm (Phakopsora pachyrhizi)

CCN(C)C=Nc1cc(Cl)cc(Cc2cc(C)c(F)c(C)c2)c1C [Compound 87, N′-(5-chloro-3-(4-fluoro-3,5-dimethylbenzyl)-2-methylphenyl)-N-ethyl-N-methylformimidamide]
≥ 70%: inhibition of growth at 300 ppm (Rhizoctonia solani) | inhibition of growth at 300 ppm (Pyricularia oryzae) | inhibition of growth at 300 ppm (Alternaria solani) | inhibition of growth at 300 ppm (Botrytis cinerea) | inhibition of growth at 300 ppm (Fusarium culmorum) | pest or weed control at 500 ppm (Phakopsora pachyrhizi)

CCN(C)C=Nc1cc(F)cc(N(C)c2cccc(C)c2)c1C [Compound 38, N-ethyl-N′-(5-fluoro-2-methyl-3-(methyl(m-tolyl)amino)phenyl)-N-methylformimidamide]
≥ 70%: inhibition of growth at 300 ppm (Rhizoctonia solani) | inhibition of growth at 300 ppm (Pyricularia oryzae) | inhibition of growth at 300 ppm (Alternaria solani) | inhibition of growth at 300 ppm (Botrytis cinerea) | inhibition of growth at 300 ppm [1] | inhibition of growth at 300 ppm (Colletotrichum capsici) | pest or weed control at 500 ppm (Phakopsora pachyrhizi)

CCN(C)C=Nc1cc(C)cc(Cc2c(F)cccc2Cl)c1Cl [Compound 92, N′-(2-chloro-3-(2-chloro-6-fluorobenzyl)-5-methylphenyl)-N-ethyl-N-methylformimidamide]
≥ 70%: inhibition of growth at 300 ppm (Rhizoctonia solani) | inhibition of growth at 300 ppm (Pyricularia oryzae) | inhibition of growth at 300 ppm (Alternaria solani) | inhibition of growth at 300 ppm (Botrytis cinerea) | inhibition of growth at 300 ppm [1] | inhibition of growth at 300 ppm (Colletotrichum capsici) | pest or weed control at 500 ppm (Phakopsora pachyrhizi)

CCN(C)C=Nc1cc(C)cc(Cc2ccc(F)c(F)c2)c1Cl [Compound 67, N′-(2-chloro-3-(3,4-difluorobenzyl)-5-methylphenyl)-N-ethyl-N-methylformimidamide]
≥ 70%: inhibition of growth at 300 ppm (Rhizoctonia solani) | inhibition of growth at 300 ppm (Pyricularia oryzae) | inhibition of growth at 300 ppm (Alternaria solani) | inhibition of growth at 300 ppm (Botrytis cinerea) | inhibition of growth at 300 ppm [1] | inhibition of growth at 300 ppm (Colletotrichum capsici) | pest or weed control at 500 ppm (Phakopsora pachyrhizi)

CCN(C)C=Nc1cc(C)cc(Nc2cc(Cl)ccc2C)c1Cl [Compound 100, N′-(2-chloro-3-((5-chloro-2-methylphenyl)amino)-5-methylphenyl)-N-ethyl-N-methylformimidamide]
≥ 70%: inhibition of growth at 300 ppm (Rhizoctonia solani) | inhibition of growth at 300 ppm (Pyricularia oryzae) | inhibition of growth at 300 ppm (Alternaria solani) | inhibition of growth at 300 ppm (Botrytis cinerea) | inhibition of growth at 300 ppm [1] | inhibition of growth at 300 ppm (Colletotrichum capsici) | pest or weed control at 500 ppm (Phakopsora pachyrhizi)

CCN(C)C=Nc1cc(Cl)cc(Cc2ccccc2)c1C [Compound 79, N′-(3-benzyl-5-chloro-2-methylphenyl)-N-ethyl-N-methylformimidamide]
≥ 70%: inhibition of growth at 300 ppm (Rhizoctonia solani) | inhibition of growth at 300 ppm (Pyricularia oryzae) | inhibition of growth at 300 ppm (Alternaria solani) | inhibition of growth at 300 ppm (Botrytis cinerea) | inhibition of growth at 300 ppm [1] | inhibition of growth at 300 ppm (Colletotrichum capsici) | pest or weed control at 500 ppm (Phakopsora pachyrhizi)

CCN(C)C=Nc1cc(F)cc(Cc2cc(C)cc(F)c2)c1C [Compound 235, N-ethyl-N′-(5-fluoro-3-(3-fluoro-5-methylbenzyl)-2-methylphenyl)-N-methylformimidamide]
≥ 70%: inhibition of growth at 300 ppm (Rhizoctonia solani) | inhibition of growth at 300 ppm (Pyricularia oryzae) | inhibition of growth at 300 ppm (Alternaria solani) | inhibition of growth at 300 ppm (Botrytis cinerea) | inhibition of growth at 300 ppm [1] | inhibition of growth at 300 ppm (Colletotrichum capsici) | pest or weed control at 500 ppm (Phakopsora pachyrhizi)

CCN(C)C=Nc1cc(Cl)cc(Cc2ccccc2F)c1C [Compound 103, N′-(5-chloro-3-(2-fluorobenzyl)-2-methylphenyl)-N-ethyl-N-methylformimidamide]
≥ 70%: inhibition of growth at 300 ppm (Rhizoctonia solani) | inhibition of growth at 300 ppm (Pyricularia oryzae) | inhibition of growth at 300 ppm (Alternaria solani) | inhibition of growth at 300 ppm (Botrytis cinerea) | inhibition of growth at 300 ppm [1] | inhibition of growth at 300 ppm (Colletotrichum capsici) | pest or weed control at 500 ppm (Phakopsora pachyrhizi)

CCN(C)C=Nc1cc(C)cc(Nc2c(C)cccc2F)c1Cl [Compound 133, N′-(2-chloro-3-((2-fluoro-6-methylphenyl)amino)-5-methylphenyl)-N-ethyl-N-methylformimidamide]
≥ 70%: inhibition of growth at 300 ppm (Rhizoctonia solani) | inhibition of growth at 300 ppm (Pyricularia oryzae) | inhibition of growth at 300 ppm (Alternaria solani) | inhibition of growth at 300 ppm (Botrytis cinerea) | inhibition of growth at 300 ppm [1] | inhibition of growth at 300 ppm (Colletotrichum capsici) | pest or weed control at 500 ppm (Phakopsora pachyrhizi)

CCN(C)C=Nc1cc(C)cc(Cc2ccc(Br)c(C)c2)c1Cl [Compound 216, N′-(3-(4-bromo-3-methylbenzyl)-2-chloro-5-methylphenyl)-N-ethyl-N-methylformimidamide]
≥ 70%: inhibition of growth at 300 ppm (Rhizoctonia solani) | inhibition of growth at 300 ppm (Pyricularia oryzae) | inhibition of growth at 300 ppm (Alternaria solani) | inhibition of growth at 300 ppm (Botrytis cinerea) | inhibition of growth at 300 ppm [1] | inhibition of growth at 300 ppm (Colletotrichum capsici) | pest or weed control at 500 ppm (Phakopsora pachyrhizi)

CCN(C)C=Nc1cc(C)cc(Cc2c(F)cccc2F)c1Cl [Compound 91, N′-(2-chloro-3-(2,6-difluorobenzyl)-5-methylphenyl)-N-ethyl-N-methylformimidamide]
≥ 70%: inhibition of growth at 300 ppm (Rhizoctonia solani) | inhibition of growth at 300 ppm (Pyricularia oryzae) | inhibition of growth at 300 ppm (Alternaria solani) | inhibition of growth at 300 ppm (Botrytis cinerea) | inhibition of growth at 300 ppm [1] | inhibition of growth at 300 ppm (Colletotrichum capsici) | pest or weed control at 500 ppm (Phakopsora pachyrhizi)

CCN(C)C=Nc1cc(C)cc(Nc2ccc(F)cc2)c1Cl [Compound 60, N′-(2-chloro-3-((4-fluorophenyl)amino)-5-methylphenyl)-N-ethyl-N-methylformimidamide]
≥ 70%: inhibition of growth at 300 ppm (Rhizoctonia solani) | inhibition of growth at 300 ppm (Pyricularia oryzae) | inhibition of growth at 300 ppm (Alternaria solani) | inhibition of growth at 300 ppm (Botrytis cinerea) | inhibition of growth at 300 ppm [1] | inhibition of growth at 300 ppm (Colletotrichum capsici) | pest or weed control at 500 ppm (Phakopsora pachyrhizi)

CCN(C)C=Nc1cc(Cl)cc(N(C)c2ncccn2)c1C [Compound 214, N′-(5-chloro-2-methyl-3-(methyl(pyrimidin-2-yl)amino)phenyl)-N-ethyl-N-methylformimidamide]
≥ 70%: inhibition of growth at 300 ppm (Rhizoctonia solani) | inhibition of growth at 300 ppm (Pyricularia oryzae) | inhibition of growth at 300 ppm (Alternaria solani) | inhibition of growth at 300 ppm [1] | inhibition of growth at 300 ppm (Fusarium culmorum) | pest or weed control at 500 ppm (Phakopsora pachyrhizi)

CCN(C)C=Nc1cc(F)cc(Nc2cc(Cl)cc(C(F)(F)F)c2)c1C [Compound 161, N′-(3-((3-chloro-5-(trifluoromethyl)phenyl)amino)-5-fluoro-2-methylphenyl)-N-ethyl-N-methylformimidamide]
≥ 70%: inhibition of growth at 300 ppm (Rhizoctonia solani) | inhibition of growth at 300 ppm (Pyricularia oryzae) | inhibition of growth at 300 ppm (Alternaria solani) | inhibition of growth at 300 ppm (Botrytis cinerea) | inhibition of growth at 300 ppm [1] | inhibition of growth at 300 ppm (Colletotrichum capsici) | pest or weed control at 500 ppm (Phakopsora pachyrhizi)

CCN(C)C=Nc1cc(F)cc(Nc2cccc(C)c2)c1C [Compound 31, N-ethyl-N′-(5-fluoro-2-methyl-3-(m-tolylamino)phenyl)-N-methylformimidamide]
≥ 70%: inhibition of growth at 300 ppm (Rhizoctonia solani) | inhibition of growth at 300 ppm (Pyricularia oryzae) | inhibition of growth at 300 ppm (Alternaria solani) | inhibition of growth at 300 ppm (Botrytis cinerea) | inhibition of growth at 300 ppm [1] | inhibition of growth at 300 ppm (Colletotrichum capsici) | pest or weed control at 500 ppm (Phakopsora pachyrhizi)

CCN(C)C=Nc1cc(F)cc(Nc2ccc(SC(F)(F)F)cc2)c1C [Compound 16, N-ethyl-N′-(5-fluoro-2-methyl-3-((4-((trifluoromethyl)thio)phenyl)amino)phenyl)-N-methylformimidamide]
≥ 70%: inhibition of growth at 300 ppm (Rhizoctonia solani) | inhibition of growth at 300 ppm (Pyricularia oryzae) | inhibition of growth at 300 ppm (Alternaria solani) | inhibition of growth at 300 ppm (Botrytis cinerea) | inhibition of growth at 300 ppm [1] | inhibition of growth at 300 ppm (Colletotrichum capsici) | pest or weed control at 500 ppm (Phakopsora pachyrhizi)

CCN(C)C=Nc1cc(C)cc(Cc2ccccc2F)c1Cl [Compound 14, N′-(2-chloro-3-(2-fluorobenzyl)-5-methylphenyl)-N-ethyl-N-methylformimidamide]
≥ 70%: inhibition of growth at 300 ppm (Rhizoctonia solani) | inhibition of growth at 300 ppm (Pyricularia oryzae) | inhibition of growth at 300 ppm (Alternaria solani) | inhibition of growth at 300 ppm (Botrytis cinerea) | inhibition of growth at 300 ppm [1] | inhibition of growth at 300 ppm (Colletotrichum capsici) | pest or weed control at 500 ppm (Phakopsora pachyrhizi)

Reference: US12545639B2, “3-substituted phenylamidine compounds, preparation and use thereof” (PI INDUSTRIES LTD., priority 2019, dated 2026)
